According to EP4678638A1, “NEW E3 UBIQUITIN LIGASE LIGAND, PROTEIN DEGRADATION AGENT AND USE THEREOF” (priority 2023, dated 2024):

Experiments:
MCF7 = assay: CCK-8 proliferation, MCF7 (MCF-7); format: cell-based; settings: Homo sapiens, MCF7; CCK-8; read-out: Inhibitory activity (IC50) on tumor cell proliferation, MCF7
Method in brief: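 CCK-8 viability readout; IC50 from growth-inhibition curve fitting. Cells plated, dosed 24h later with a 10-point series, top 10µM, 5-fold steps. Culture at 37°C, 5% CO2.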

CDK4 = target: T1, CDK4 (Homo sapiens, UniProt P11802); assay: Western blot degradation of CDK4 (MDA-MB-231 Cell); format: cell-based; settings: Table D3
T1 construct: evaluate the effects of the compounds of the present disclosure on the expression of target proteins in cells; endogenous in cells; host or cells: MDA-MB-231
Experimental: (§1) Conventional Western blot assay was performed to evaluate the effects of the compounds of the present disclosure on the expression of target proteins in cells.
(§2) (1) Cell Seeding and Protein Harvesting: The selected cells were processed according to the cell seeding procedure and protein harvesting procedure in Table III-2. Table III-2 Cell Seeding and Protein Harvesting Procedures
(§3) (2) To the collected supernatant, 5X SDS sample loading buffer was added, followed by denaturation at 95°C for 5 minutes. The denatured samples were then separated by SDS-PAGE electrophoresis on a polyacrylamide gel. Proteins were transferred to a nitrocellulose membrane (0.45 µm NC membrane), blocked with blocking buffer at room temperature for 1 hour, and subjected to antibody incubation and development procedures according to the antibody manufacturer's instructions (Cell Signaling Technology).
(§4) Half-Maximal Degradation Concentration value (the drug concentration required for degrading proteins by 50%, abbreviated as DC50) reads method: comparing the grayscale values of Western blot bands from drug-treated samples with those from blank DMSO-treated controls, and identifying the drug concentration range at which the grayscale value is half that of the DMSO-treated control bands.
(§5) DC50 values can be calculated using ImageJ software to measure grayscale values of Western blot bands from drug-treated samples. The concentration-response curve is fitted to estimate the drug concentration corresponding to half the grayscale value.
(§6) Target protein remaining (%) refers to the percentage of target protein remaining in hPBMC cells after treatment with protein degrader compounds.
(§7) Calculation method for target protein remaining (%): Use ImageJ software to measure grayscale values of Western blot bands from drug (protein degrader)-treated samples. The grayscale value of drug-treated bands is divided by that of internal control protein bands, and the resulting quotient is normalized to obtain the relative percentage of remaining target protein after protein degrader treatment.
(§8) Target protein degradation rate (%) = 100% - target protein remaining (%).

CDK6 = target: T2, CDK6 (Homo sapiens, UniProt Q00534); assay: Western blot degradation of CDK6 (MDA-MB-231 Cell); format: cell-based; settings: Table D3
T2 construct: evaluate the effects of the compounds of the present disclosure on the expression of target proteins in cells; endogenous in cells; host or cells: MDA-MB-231
Experimental: as §1, §2, §3, §4, §5, §6, §7, §8

[1] = target: T3, human Cereblon WT GST-tagged protein (Homo sapiens, UniProt Q96SW2); assay: CRBN binding, HTRF (CEREBLON BINDING kit); settings: Table II-2, CRBN binding screening, HTRF; for inhibition at 0.5 µM: read-out: Inhibition rate (%) at 0.5µM; for inhibition at 2 µM: read-out: Inhibition rate (%) at 2 µM
T3 construct: purchased CISBIO 64BDCRBNPEH
Method in brief: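 Competitive HTRF: GST-tagged human WT Cereblon mixed with compound, Thalidomide-Re tracer and GST Eu antibody, incubated 3 h at room temperature. Signals read at 620 and 665 nm.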

T1 sequence (P11802 whole entry): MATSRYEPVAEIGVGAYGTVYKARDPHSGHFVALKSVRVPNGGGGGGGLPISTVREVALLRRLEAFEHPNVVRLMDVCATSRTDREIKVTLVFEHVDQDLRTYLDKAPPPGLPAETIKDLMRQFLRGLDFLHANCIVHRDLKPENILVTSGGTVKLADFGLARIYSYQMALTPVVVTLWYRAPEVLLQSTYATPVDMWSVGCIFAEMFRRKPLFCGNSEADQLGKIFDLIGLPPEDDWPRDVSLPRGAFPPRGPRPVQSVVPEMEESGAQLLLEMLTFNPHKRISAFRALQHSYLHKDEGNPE
T3 sequence (Q96SW2 whole entry): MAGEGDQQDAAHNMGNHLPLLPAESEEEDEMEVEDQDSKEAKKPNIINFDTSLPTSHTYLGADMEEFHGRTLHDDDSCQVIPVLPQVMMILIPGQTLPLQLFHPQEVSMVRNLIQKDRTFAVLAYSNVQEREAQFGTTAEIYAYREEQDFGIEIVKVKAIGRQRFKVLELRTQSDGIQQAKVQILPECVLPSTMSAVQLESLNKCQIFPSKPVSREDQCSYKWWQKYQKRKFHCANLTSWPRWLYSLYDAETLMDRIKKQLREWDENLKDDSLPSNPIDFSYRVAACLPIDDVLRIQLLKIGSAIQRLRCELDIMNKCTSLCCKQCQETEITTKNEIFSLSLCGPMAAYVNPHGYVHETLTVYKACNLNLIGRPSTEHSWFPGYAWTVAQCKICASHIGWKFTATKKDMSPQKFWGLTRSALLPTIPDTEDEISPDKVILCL
T2 sequence (Q00534 whole entry): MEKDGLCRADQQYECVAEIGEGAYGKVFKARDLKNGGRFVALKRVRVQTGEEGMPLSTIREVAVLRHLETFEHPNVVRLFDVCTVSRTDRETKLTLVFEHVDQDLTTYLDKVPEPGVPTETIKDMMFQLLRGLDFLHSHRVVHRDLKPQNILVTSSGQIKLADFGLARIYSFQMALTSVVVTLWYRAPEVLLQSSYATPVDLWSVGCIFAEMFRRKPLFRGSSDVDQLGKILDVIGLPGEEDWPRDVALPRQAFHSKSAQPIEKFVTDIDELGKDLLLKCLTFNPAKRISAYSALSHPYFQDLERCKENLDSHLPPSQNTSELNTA

Row | IC50 (MCF7) [nM] | inhibition at 0.5 µM [1] [%] | inhibition at 2 µM [1] [%] | SMILES | Degradation of substrate protein CDK4 (substrate protein remaining %) (CDK4) | Degradation of substrate protein CDK6 (substrate protein remaining %) (CDK6)
1 | 100 to 500 | – | – | CC(=O)c1c(C)c2cnc(Nc3ccc(N4CCN(Cc5ccc(C6CCC(=O)NC6=O)cc5)CC4)cn3)nc2n(C2CCCC2)c1=O (centres unmarked) [GT-06575, 3-(4-((4-(6-((6-acetyl-8-cyclopentyl-5-methyl-7-oxo-7,8-dihydropyrido[2,3-d]pyrimidin-2-yl)amino)pyridin-3-yl)piperazin-1-yl)methyl)phenyl)piperidine-2,6-dione] | A (A is defined as 0% ≤ substrate protein remaining % ≤ 80%) | A (A is defined as 0% ≤ substrate protein remaining % ≤ 80%)
2 | – | – | – | CC(=O)c1c(C)c2cnc(Nc3ccc(N4CCN(Cc5ccc(N6CCC(=O)NC6=O)nc5)CC4)cn3)nc2n(C2CCCC2)c1=O [GT-06579, 1-(5-((4-(6-((6-acetyl-8-cyclopentyl-5-methyl-7-oxo-7,8-dihydropyrido[2,3-d]pyrimidin-2-yl)amino)pyridin-3-yl)piperazin-1-yl)methyl)pyridin-2-yl)dihydropyrimidine-2,4(1H,3H)-dione] | B (B is defined as substrate protein remaining % > 80%) | A (A is defined as 0% ≤ substrate protein remaining % ≤ 80%)
3 | – | – | – | CN(C)C(=O)c1cc2cnc(Nc3ccc(N4CCN(Cc5cc(N6CCC(=O)NC6=O)ncc5F)CC4)cn3)nc2n1C1CCCC1 [GT-07474, 7-cyclopentyl-2-((5-(4-((2-(2,4-dioxotetrahydropyrimidin-1(2H)-yl)-5-fluoropyridin-4-yl)methyl)piperazin-1-yl)pyridin-2-yl)amino)-N,N-dimethyl-7H-pyrrolo[2,3-d]pyrimidine-6-carboxamide] | A (A is defined as 0% ≤ substrate protein remaining % ≤ 80%) | A (A is defined as 0% ≤ substrate protein remaining % ≤ 80%)
4 | – | 30 to 40 | 60 to 80 | CN(C)C(=O)c1cc2cnc(Nc3ccc(N4CCN(Cc5cncc(N6CCC(=O)NC6=O)c5)CC4)cn3)nc2n1C1CCCC1 [GT-07476, 7-cyclopentyl-2-((5-(4-((5-(2,4-dioxotetrahydropyrimidin-1(2H)-yl)pyridin-3-yl)methyl)piperazin-1-yl)pyridin-2-yl)amino)-N,N-dimethyl-7H-pyrrolo[2,3-d]pyrimidine-6-carboxamide] | A (A is defined as 0% ≤ substrate protein remaining % ≤ 80%) | A (A is defined as 0% ≤ substrate protein remaining % ≤ 80%)
5 | – | 20 to 30 | 60 to 80 | CN(C)C(=O)c1cc2cnc(Nc3ccc(N4CCN(Cc5ccc(C6CCC(=O)NC6=O)cn5)CC4)cn3)nc2n1C1CCCC1 (centres unmarked) [GT-07477, 7-cyclopentyl-2-((5-(4-((5-(2,6-dioxopiperidin-3-yl)pyridin-2-yl)methyl)piperazin-1-yl)pyridin-2-yl)amino)-N,N-dimethyl-7H-pyrrolo[2,3-d]pyrimidine-6-carboxamide] | A (A is defined as 0% ≤ substrate protein remaining % ≤ 80%) | A (A is defined as 0% ≤ substrate protein remaining % ≤ 80%)
6 | – | – | – | CN(C)C(=O)c1cc2cnc(Nc3ccc(N4CCN(Cc5ccnc(C6CCC(=O)NC6=O)c5)CC4)cn3)nc2n1C1CCCC1 (centres unmarked) [GT-07478, 7-cyclopentyl-2-((5-(4-((2-(2,6-dioxopiperidin-3-yl)pyridin-4-yl)methyl)piperazin-1-yl)pyridin-2-yl)amino)-N,N-dimethyl-7H-pyrrolo[2,3-d]pyrimidine-6-carboxamide] | A (A is defined as 0% ≤ substrate protein remaining % ≤ 80%) | A (A is defined as 0% ≤ substrate protein remaining % ≤ 80%)
7 | – | 53 to 60 | 80 to 100 | CN(C)C(=O)c1cc2cnc(Nc3ccc(N4CCN(Cc5cncc(C6CCC(=O)NC6=O)c5)CC4)cn3)nc2n1C1CCCC1 (centres unmarked) [GT-07479, 7-cyclopentyl-2-((5-(4-((5-(2,6-dioxopiperidin-3-yl)pyridin-3-yl)methyl)piperazin-1-yl)pyridin-2-yl)amino)-N,N-dimethyl-7H-pyrrolo[2,3-d]pyrimidine-6-carboxamide] | A (A is defined as 0% ≤ substrate protein remaining % ≤ 80%) | A (A is defined as 0% ≤ substrate protein remaining % ≤ 80%)
8 | – | – | – | CC(=O)c1c(C)c2cnc(Nc3ccc(N4CCN(Cc5cc(N6CCC(=O)NC6=O)ncc5F)CC4)cn3)nc2n(C2CCCC2)c1=O [GT-07480, 1-(4-((4-(6-((6-acetyl-8-cyclopentyl-5-methyl-7-oxo-7,8-dihydropyrido[2,3-d]pyrimidin-2-yl)amino)pyridin-3-yl)piperazin-1-yl)methyl)-5-fluoropyridin-2-yl)dihydropyrimidine-2,4(1H,3H)-dione] | A (A is defined as 0% ≤ substrate protein remaining % ≤ 80%) | A (A is defined as 0% ≤ substrate protein remaining % ≤ 80%)
9 | – | – | – | CC(=O)c1c(C)c2cnc(Nc3ccc(N4CCN(Cc5ccnc(N6CCC(=O)NC6=O)c5)CC4)cn3)nc2n(C2CCCC2)c1=O [GT-07481, 1-(4-((4-(6-((6-acetyl-8-cyclopentyl-5-methyl-7-oxo-7,8-dihydropyrido[2,3-d]pyrimidin-2-yl)amino)pyridin-3-yl)piperazin-1-yl)methyl)pyridin-2-yl)dihydropyrimidine-2,4(1H,3H)-dione] | A (A is defined as 0% ≤ substrate protein remaining % ≤ 80%) | A (A is defined as 0% ≤ substrate protein remaining % ≤ 80%)
10 | – | – | – | CC(=O)c1c(C)c2cnc(Nc3ccc(N4CCN(Cc5cnc(N6CCC(=O)NC6=O)cn5)CC4)cn3)nc2n(C2CCCC2)c1=O [GT-07827, 1-(5-((4-(6-((6-acetyl-8-cyclopentyl-5-methyl-7-oxo-7,8-dihydropyrido[2,3-d]pyrimidin-2-yl)amino)pyridin-3-yl)piperazin-1-yl)methyl)pyrazin-2-yl)dihydropyrimidine-2,4(1H,3H)-dione] | A (A is defined as 0% ≤ substrate protein remaining % ≤ 80%) | A (A is defined as 0% ≤ substrate protein remaining % ≤ 80%)
11 | – | 30 to 40 | 60 to 80 | CN(C)C(=O)c1cc2cnc(Nc3ccc(N4CCN(Cc5cc(N6CCC(=O)NC6=O)cnc5F)CC4)cn3)nc2n1C1CCCC1 [GT-07830, 7-cyclopentyl-2-((5-(4-((5-(2,4-dioxotetrahydropyrimidin-1(2H)-yl)-2-fluoropyridin-3-yl)methyl)piperazin-1-yl)pyridin-2-yl)amino)-N,N-dimethyl-7H-pyrrolo[2,3-d]pyrimidine-6-carboxamide] | A (A is defined as 0% ≤ substrate protein remaining % ≤ 80%) | A (A is defined as 0% ≤ substrate protein remaining % ≤ 80%)
12 | – | – | – | CN(C)C(=O)c1cc2cnc(Nc3ccc(N4CCN(Cc5cnc(N6CCC(=O)NC6=O)cn5)CC4)cn3)nc2n1C1CCCC1 [GT-07831, 7-cyclopentyl-2-((5-(4-((5-(2,4-dioxotetrahydropyrimidin-1(2H)-yl)pyrazin-2-yl)methyl)piperazin-1-yl)pyridin-2-yl)amino)-N,N-dimethyl-7H-pyrrolo[2,3-d]pyrimidine-6-carboxamide] | A (A is defined as 0% ≤ substrate protein remaining % ≤ 80%) | A (A is defined as 0% ≤ substrate protein remaining % ≤ 80%)
13 | – | – | – | CC(=O)c1c(C)c2cnc(Nc3ccc(N4CCN(Cc5cc(N6CCC(=O)NC6=O)cnc5F)CC4)cn3)nc2n(C2CCCC2)c1=O [GT-07832, 1-(5-((4-(6-((6-acetyl-8-cyclopentyl-5-methyl-7-oxo-7,8-dihydropyrido[2,3-d]pyrimidin-2-yl)amino)pyridin-3-yl)piperazin-1-yl)methyl)-6-fluoropyridin-3-yl)dihydropyrimidine-2,4(1H,3H)-dione] | A (A is defined as 0% ≤ substrate protein remaining % ≤ 80%) | A (A is defined as 0% ≤ substrate protein remaining % ≤ 80%)
